For three compounds, inhibition and IC50 results are on record in patent US20090264420A1, “ORGANIC COMPOUNDS” (priority 2006, published 2009).

Usually IC50 stands for the concentration at which inhibition is half-maximal.

One assay has as its target T1, human aromatase (Homo sapiens, UniProt P11511).
T1 construct: purchased Gentest (Woburn, Mass.)
T1 sequence (P11511 1-503): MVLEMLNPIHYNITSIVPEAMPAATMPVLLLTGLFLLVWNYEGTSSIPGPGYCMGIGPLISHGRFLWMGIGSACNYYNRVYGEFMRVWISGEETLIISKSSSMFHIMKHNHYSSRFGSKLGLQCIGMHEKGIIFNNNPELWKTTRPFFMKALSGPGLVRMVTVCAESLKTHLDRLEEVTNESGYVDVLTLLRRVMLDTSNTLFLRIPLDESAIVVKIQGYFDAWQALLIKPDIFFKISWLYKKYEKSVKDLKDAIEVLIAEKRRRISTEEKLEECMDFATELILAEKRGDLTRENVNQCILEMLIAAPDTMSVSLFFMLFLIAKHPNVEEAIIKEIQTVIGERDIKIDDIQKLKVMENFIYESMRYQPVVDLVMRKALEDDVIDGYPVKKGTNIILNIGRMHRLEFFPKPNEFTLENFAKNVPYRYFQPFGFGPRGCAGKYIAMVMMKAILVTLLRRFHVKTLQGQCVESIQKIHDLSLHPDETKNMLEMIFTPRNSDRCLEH
Put plainly: Human aromatase assay with dibenzylfluorescein substrate (fluorescence). Conditions: 1.5 h; percentage of inhibitory rate at 10 μM; ARO: Aromatase; read-out: ARO % I @ 10 μM. It is filed as biochemical. The source says: (§1) Human adrenocortical carcinoma NCI-H295R cell line is obtained from American Type Culture Collection (Manassas, Va.). Insulin/transferrin/selenium (ITS)-A supplement (100×), DMEM/F-12, antibiotic/antimycotic (100×), and fetal calf serum (FCS) are purchased from Gibco (Grand Island, N.Y.). Anti-mouse PVT scintillation proximity assay (SPA) beads and NBS 96-well plates are obtained from Amersham (Piscataway, N.J.) and Corning (Acton, Mass.), respectively. Solid black 96-well flat bottom plates are purchased from Costar (Corning, N.Y.). Aldosterone and angiotensin (Ang II) are purchased from Sigma (St. Louis, Mo.). D-[1,2,6,7^−3H(N)]aldosterone was acquired from PerkinElmer (Boston, Mass.). Nu-serum was a product of BD Biosciences (Franklin Lakes, N.J.). The NADPH regenerating system, dibenzylfluorescein (DBF), and human aromatase Supersomes® are obtained from Gentest (Woburn, Mass.).
To measure aromatase activity, the human aromatase assay is performed in 96-well flat bottom plates according to a published protocol (Stresser et al, 2000) with minor modifications. Briefly, 10 μl, of an NADPH regenerating system containing 2.6 mM NADP^+, 6.6 mM glucose 6-phosphate, 6.6 mM MgCl2, and 0.8 U/ml glucose-6-phosphate dehydrogenase in 50 mM potassium phosphate, pH 7.4, is pre-incubated with the test compound at a desired concentration at 30° C. for 10 min in a total volume of 100 μl. Afterwards, 4 pmol of human aromatase, 20 μg of control microsomal protein, and 4 μM DBF in 100 μl of 50 mM potassium phosphate, pH 7.4, is added to each well and incubated at 30° C. for 90 min. The reaction is terminated by the addition of 75 μl of 2 N NaOH to each well. After 2 hr, the product, fluorescein, is measured by a fluorimeter using excitation and emission wavelengths of 485 and 538 nm, respectively.
(§2) Full concentration-response curves of the test compound are performed at least 3 times. The IC50 values are derived using a non-linear least squares curve-fitting program from Microsoft XLfit.

In the next assay the target is T2, aldosterone synthase (Homo sapiens, UniProt P19099).
T2 construct: host or cells: NCI-H295R
T2 sequence (P19099 25-503): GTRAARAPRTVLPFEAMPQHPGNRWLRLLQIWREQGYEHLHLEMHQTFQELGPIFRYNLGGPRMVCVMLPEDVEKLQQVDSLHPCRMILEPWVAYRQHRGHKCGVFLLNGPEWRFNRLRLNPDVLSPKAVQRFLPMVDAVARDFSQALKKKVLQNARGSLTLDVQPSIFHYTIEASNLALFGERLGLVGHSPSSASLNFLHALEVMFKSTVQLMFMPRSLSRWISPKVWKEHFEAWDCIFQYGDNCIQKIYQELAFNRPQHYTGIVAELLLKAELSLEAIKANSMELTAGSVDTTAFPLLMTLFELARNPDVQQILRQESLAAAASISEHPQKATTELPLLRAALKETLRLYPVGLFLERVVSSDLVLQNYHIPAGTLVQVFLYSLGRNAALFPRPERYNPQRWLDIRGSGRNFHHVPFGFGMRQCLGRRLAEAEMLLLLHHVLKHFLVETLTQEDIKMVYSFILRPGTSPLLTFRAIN
Put plainly: Aldosterone production in Ang II-stimulated NCI-H295R cells (aldosterone synthase inhibition). The assay is classed as cell-based. As to conditions: AS: aldosterone synthase.
Excerpt: as §1
For in vitro measurement of aldosterone activity, human adrenocortical carcinoma NCI-H295R cells are seeded in NBS 96-well plates at a density of 25,000 cells/well in 100 μl′ of a growth medium containing DMEM/F12 supplemented with 10% FCS, 2.5% Nu-serum, 1 μg ITS/ml, and 1× antibiotic/antimycotic. The medium is changed after culturing for 3 days at 37° C. under an atmosphere of 5% CO2/95% air. On the following day, cells are rinsed with 100 μl of DMEM/F12 and incubated with 100 μl of treatment medium containing 1 μM Ang II and a compound at different concentrations in quadruplicate wells at 37° C. for 24 hr. At the end of incubation, 50 μl of medium is withdrawn from each well for measurement of aldosterone production by an RIA using mouse anti-aldosterone monoclonal antibodies.
Measurement of aldosterone activity can also be performed using, a 96-well plate format. Each test sample is incubated with 0.02 μCi of D-[1,2,6,7-^3H(N)]aldosterone and 0.3 μg of anti-aldosterone antibody in phosphate-buffered saline (PBS) containing 0.1% Triton X-100, 0.1% bovine serum albumin, and 12% glycerol in a total volume of 200 μl at room temperature for 1 hr. Anti-mouse PVT SPA beads (50 μl) are then added to each well and incubated overnight at room temperature prior to counting in a Microbeta plate counter. The amount of aldosterone in each sample is calculated by comparing with a standard curve generated using known quantities of the hormone.
as §2

`CC(C)(C)C1C(=O)N(Cc2ccc(Cl)cc2)Cc2cncn21` (single isomer, unassigned) [Compound 6, 5-tert-Butyl-7-(4-chloro-benzyl)-7,8-dihydro-imidazo[1,5-a]pyrazin-6-one]: the inhibition at 10 µM on human aromatase is 51%. Moreover, half-maximal inhibition at aldosterone synthase (IC50) was put at 3 nM.

As for `CCC(C)(C)C1C(=O)N(Cc2cccc(F)c2)CCc2cncn21` (single isomer, unassigned) [Compound 2, 4-(1,1-Dimethyl-propyl)-6-(3-fluoro-benzyl)-7,8-dihydro-6H-2,3a,6-triaza-azulen-5-one], the inhibition at 10 µM on human aromatase stood at 60%. On aldosterone synthase, this compound had a 50% inhibitory concentration (IC50) of 48 nM.

`N#Cc1ccc(CN2Cc3cncn3C(C3CC3)C2=O)cc1` (single isomer, unassigned) [Compound 8, 4-(5-Cyclopropyl-6-oxo-5,6-dihydro-8H-imidazo[1,5-a]pyrazin-7-ylmethyl)-benzonitrile]: at human aromatase, the inhibition at 10 µM was 74%. At aldosterone synthase, it took 66 nM to reach half-maximal inhibition (IC50).
